Reference: ChEMBL document CHEMBL5723582, “Data for DCP probe T-10430” (2024)

Key:
Conditions in all cases: Compound concentration 1.0 uM
[1] = target: Calcitonin receptor (Homo sapiens) (UniProt P30988); assay: RLU of CALCRb at 1.0 µM in the […] PRESTO-Tango GPCRome screen
[2] = target: G-protein coupled receptor 15 (Homo sapiens) (UniProt P49685); assay: RLU of GPR15 at 1.0 µM in the […] PRESTO-Tango GPCRome screen
[3] = target: Neurotensin receptor type 1 (Homo sapiens) (UniProt P30989); assay: RLU of NTSR1 at 1.0 µM in the […] PRESTO-Tango GPCRome screen
[4] = target: Gastrin/cholecystokinin type B receptor (Homo sapiens) (UniProt P32239); assay: RLU of CCKBR at 1.0 µM in the […] PRESTO-Tango GPCRome screen
[5] = target: fMet-Leu-Phe receptor (Homo sapiens) (UniProt P21462); assay: RLU of FPR1 at 1.0 µM in the […] PRESTO-Tango GPCRome screen
[6] = target: P2Y purinoceptor 4 (Homo sapiens) (UniProt P51582); assay: RLU of P2RY4 at 1.0 µM in the […] PRESTO-Tango GPCRome screen
[7] = target: Adhesion G protein-coupled receptor A1 (Homo sapiens) (UniProt Q86SQ6); assay: RLU of GPR123 at 1.0 µM in the […] PRESTO-Tango GPCRome screen
[8] = target: G-protein coupled receptor 52 (Homo sapiens) (UniProt Q9Y2T5); assay: RLU of GPR52 at 1.0 µM in the […] PRESTO-Tango GPCRome screen
[9] = target: Probable G-protein coupled receptor 132 (Homo sapiens) (UniProt Q9UNW8); assay: RLU of G2A at 1.0 µM in the […] PRESTO-Tango GPCRome screen
Sequence of Probable G-protein coupled receptor 132 (Homo sapiens) (Q9UNW8 whole entry): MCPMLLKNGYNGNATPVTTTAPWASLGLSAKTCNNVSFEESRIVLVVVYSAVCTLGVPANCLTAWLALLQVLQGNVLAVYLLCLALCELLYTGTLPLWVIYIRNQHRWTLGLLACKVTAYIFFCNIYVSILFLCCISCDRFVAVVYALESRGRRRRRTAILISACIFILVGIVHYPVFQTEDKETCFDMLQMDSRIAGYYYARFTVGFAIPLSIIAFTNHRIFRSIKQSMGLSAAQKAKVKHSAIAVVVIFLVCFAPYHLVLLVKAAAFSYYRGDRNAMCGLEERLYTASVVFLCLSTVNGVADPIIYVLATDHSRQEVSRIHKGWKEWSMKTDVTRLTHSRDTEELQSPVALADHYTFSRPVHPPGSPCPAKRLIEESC

[10] = target: Proto-oncogene Mas (Homo sapiens) (UniProt P04201); assay: RLU of MAS1 at 1.0 µM in the […] PRESTO-Tango GPCRome screen
Sequence of Proto-oncogene Mas (Homo sapiens) (P04201 whole entry): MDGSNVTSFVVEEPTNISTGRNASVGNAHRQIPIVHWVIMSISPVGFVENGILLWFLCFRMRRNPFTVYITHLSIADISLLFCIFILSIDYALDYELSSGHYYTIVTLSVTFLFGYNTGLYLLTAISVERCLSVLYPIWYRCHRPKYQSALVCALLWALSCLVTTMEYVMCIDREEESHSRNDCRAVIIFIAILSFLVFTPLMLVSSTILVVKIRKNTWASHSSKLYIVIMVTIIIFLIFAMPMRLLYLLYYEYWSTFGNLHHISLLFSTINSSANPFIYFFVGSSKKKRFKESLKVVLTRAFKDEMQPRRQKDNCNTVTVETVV

[11] = target: Sphingosine 1-phosphate receptor 4 (Homo sapiens) (UniProt O95977); assay: RLU of S1PR4 at 1.0 µM in the […] PRESTO-Tango GPCRome screen
Sequence of Sphingosine 1-phosphate receptor 4 (Homo sapiens) (O95977 whole entry): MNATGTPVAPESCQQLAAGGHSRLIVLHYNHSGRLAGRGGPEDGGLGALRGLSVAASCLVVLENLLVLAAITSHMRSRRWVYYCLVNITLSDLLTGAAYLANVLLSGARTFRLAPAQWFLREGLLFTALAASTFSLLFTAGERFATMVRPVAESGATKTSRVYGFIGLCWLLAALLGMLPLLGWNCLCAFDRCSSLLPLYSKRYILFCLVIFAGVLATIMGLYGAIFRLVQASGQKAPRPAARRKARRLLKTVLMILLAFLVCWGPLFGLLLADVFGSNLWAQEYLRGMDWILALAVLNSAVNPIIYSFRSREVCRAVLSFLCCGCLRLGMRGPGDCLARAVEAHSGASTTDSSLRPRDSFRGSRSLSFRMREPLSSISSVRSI

[12] = target: G protein-coupled receptor 88 (Homo sapiens) (UniProt Q9GZN0); assay: RLU of GPR88 at 1.0 µM in the […] PRESTO-Tango GPCRome screen
[13] = target: Neuropeptides B/W receptor type 2 (Homo sapiens) (UniProt P48146); assay: RLU of NPBW2 at 1.0 µM in the […] PRESTO-Tango GPCRome screen
[14] = target: P2Y purinoceptor 1 (Homo sapiens) (UniProt P47900); assay: RLU of P2RY1 at 1.0 µM in the […] PRESTO-Tango GPCRome screen
[15] = target: Muscarinic acetylcholine receptor M2 (Homo sapiens) (UniProt P08172); assay: RLU of CHRM2 at 1.0 µM in the […] PRESTO-Tango GPCRome screen
[16] = target: Prostaglandin E2 receptor EP3 subtype (Homo sapiens) (UniProt P43115); assay: RLU of PTGER3 at 1.0 µM in the […] PRESTO-Tango GPCRome screen
[17] = target: G-protein coupled receptor 65 (Homo sapiens) (UniProt Q8IYL9); assay: RLU of GPR65 at 1.0 µM in the […] PRESTO-Tango GPCRome screen
[18] = target: Melanocyte-stimulating hormone receptor (Homo sapiens) (UniProt Q01726); assay: RLU of MC1R at 1.0 µM in the […] PRESTO-Tango GPCRome screen
[19] = target: Thyrotropin receptor (Homo sapiens) (UniProt P16473); assay: RLU of TSHR at 1.0 µM in the […] PRESTO-Tango GPCRome screen
[20] = target: 5-hydroxytryptamine receptor 1D (Homo sapiens) (UniProt P28221); assay: RLU of HTR1D at 1.0 µM in the […] PRESTO-Tango GPCRome screen
[21] = target: 5-hydroxytryptamine receptor 1B (Homo sapiens) (UniProt P28222); assay: RLU of HTR1B at 1.0 µM in the Aequorin PRESTO-Tango GPCRome screen
[22] = target: Adenosine receptor A2b (Homo sapiens) (UniProt P29275); assay: RLU of ADORA2B at 1.0 µM in the […] PRESTO-Tango GPCRome screen
Sequence of Adenosine receptor A2b (Homo sapiens) (P29275 whole entry): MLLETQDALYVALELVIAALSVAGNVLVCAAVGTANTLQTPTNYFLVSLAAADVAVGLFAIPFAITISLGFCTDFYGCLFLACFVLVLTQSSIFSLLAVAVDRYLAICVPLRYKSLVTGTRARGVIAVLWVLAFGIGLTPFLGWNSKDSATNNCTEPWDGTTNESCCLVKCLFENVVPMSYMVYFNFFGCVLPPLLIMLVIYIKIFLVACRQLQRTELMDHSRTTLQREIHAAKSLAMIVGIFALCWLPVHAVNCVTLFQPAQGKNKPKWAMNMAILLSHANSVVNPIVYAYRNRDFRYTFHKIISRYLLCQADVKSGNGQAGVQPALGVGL

[23] = target: Histamine H2 receptor (Homo sapiens) (UniProt P25021); assay: RLU of HRH2 at 1.0 µM in the Aequorin PRESTO-Tango GPCRome screen
[24] = target: 5-hydroxytryptamine receptor 2A (Homo sapiens) (UniProt P28223); assay: RLU of HTR2A at 1.0 µM in the […] PRESTO-Tango GPCRome screen
[25] = target: Probable G-protein coupled receptor 34 (Homo sapiens) (UniProt Q9UPC5); assay: RLU of GPR34 at 1.0 µM in the […] PRESTO-Tango GPCRome screen
[26] = target: Lysophosphatidic acid receptor 1 (Homo sapiens) (UniProt Q92633); assay: RLU of LPAR1 at 1.0 µM in the […] PRESTO-Tango GPCRome screen
Sequence of Lysophosphatidic acid receptor 1 (Homo sapiens) (Q92633 whole entry): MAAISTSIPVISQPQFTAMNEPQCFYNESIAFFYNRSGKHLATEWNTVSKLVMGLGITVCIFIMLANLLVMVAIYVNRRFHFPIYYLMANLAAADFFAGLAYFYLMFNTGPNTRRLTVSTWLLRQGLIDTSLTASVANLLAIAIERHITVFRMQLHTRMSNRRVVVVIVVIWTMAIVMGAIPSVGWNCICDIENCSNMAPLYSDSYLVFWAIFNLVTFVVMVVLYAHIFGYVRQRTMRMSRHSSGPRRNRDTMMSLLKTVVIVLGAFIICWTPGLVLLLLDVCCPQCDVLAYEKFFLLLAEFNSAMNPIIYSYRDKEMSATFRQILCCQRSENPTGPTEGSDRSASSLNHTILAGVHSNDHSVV

[27] = target: Histamine H1 receptor (Homo sapiens) (UniProt P35367); assay: RLU of HRH1 at 1.0 µM in the Aequorin PRESTO-Tango GPCRome screen
[28] = target: Prolactin-releasing peptide receptor (Homo sapiens) (UniProt P49683); assay: RLU of PRRP at 1.0 µM in the […] PRESTO-Tango GPCRome screen
[29] = target: C-X-C chemokine receptor type 2 (Homo sapiens) (UniProt P25025); assay: RLU of CXCR2 at 1.0 µM in the […] PRESTO-Tango GPCRome screen
[30] = target: Glucagon-like peptide 2 receptor (Homo sapiens) (UniProt O95838); assay: RLU of GLP2R at 1.0 µM in the […] PRESTO-Tango GPCRome screen
Sequence of Glucagon-like peptide 2 receptor (Homo sapiens) (O95838 whole entry): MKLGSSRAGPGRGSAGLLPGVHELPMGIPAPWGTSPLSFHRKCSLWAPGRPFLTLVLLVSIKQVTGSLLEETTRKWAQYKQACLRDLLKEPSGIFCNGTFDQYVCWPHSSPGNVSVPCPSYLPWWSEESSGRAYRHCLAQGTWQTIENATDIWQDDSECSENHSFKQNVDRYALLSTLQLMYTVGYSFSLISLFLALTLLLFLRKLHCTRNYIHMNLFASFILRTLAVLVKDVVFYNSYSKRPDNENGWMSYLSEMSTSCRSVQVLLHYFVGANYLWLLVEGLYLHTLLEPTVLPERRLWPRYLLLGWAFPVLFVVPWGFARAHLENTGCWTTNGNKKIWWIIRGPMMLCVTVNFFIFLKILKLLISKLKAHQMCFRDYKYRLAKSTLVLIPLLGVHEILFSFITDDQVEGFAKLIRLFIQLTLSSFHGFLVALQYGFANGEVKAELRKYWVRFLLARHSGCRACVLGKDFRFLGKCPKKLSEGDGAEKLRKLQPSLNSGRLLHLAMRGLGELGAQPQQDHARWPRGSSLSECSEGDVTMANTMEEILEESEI

[31] = target: Adhesion G protein-coupled receptor D2 (Homo sapiens) (UniProt Q7Z7M1); assay: RLU of GPR144 at 1.0 µM in the […] PRESTO-Tango GPCRome screen
Sequence of Adhesion G protein-coupled receptor D2 (Homo sapiens) (Q7Z7M1 whole entry): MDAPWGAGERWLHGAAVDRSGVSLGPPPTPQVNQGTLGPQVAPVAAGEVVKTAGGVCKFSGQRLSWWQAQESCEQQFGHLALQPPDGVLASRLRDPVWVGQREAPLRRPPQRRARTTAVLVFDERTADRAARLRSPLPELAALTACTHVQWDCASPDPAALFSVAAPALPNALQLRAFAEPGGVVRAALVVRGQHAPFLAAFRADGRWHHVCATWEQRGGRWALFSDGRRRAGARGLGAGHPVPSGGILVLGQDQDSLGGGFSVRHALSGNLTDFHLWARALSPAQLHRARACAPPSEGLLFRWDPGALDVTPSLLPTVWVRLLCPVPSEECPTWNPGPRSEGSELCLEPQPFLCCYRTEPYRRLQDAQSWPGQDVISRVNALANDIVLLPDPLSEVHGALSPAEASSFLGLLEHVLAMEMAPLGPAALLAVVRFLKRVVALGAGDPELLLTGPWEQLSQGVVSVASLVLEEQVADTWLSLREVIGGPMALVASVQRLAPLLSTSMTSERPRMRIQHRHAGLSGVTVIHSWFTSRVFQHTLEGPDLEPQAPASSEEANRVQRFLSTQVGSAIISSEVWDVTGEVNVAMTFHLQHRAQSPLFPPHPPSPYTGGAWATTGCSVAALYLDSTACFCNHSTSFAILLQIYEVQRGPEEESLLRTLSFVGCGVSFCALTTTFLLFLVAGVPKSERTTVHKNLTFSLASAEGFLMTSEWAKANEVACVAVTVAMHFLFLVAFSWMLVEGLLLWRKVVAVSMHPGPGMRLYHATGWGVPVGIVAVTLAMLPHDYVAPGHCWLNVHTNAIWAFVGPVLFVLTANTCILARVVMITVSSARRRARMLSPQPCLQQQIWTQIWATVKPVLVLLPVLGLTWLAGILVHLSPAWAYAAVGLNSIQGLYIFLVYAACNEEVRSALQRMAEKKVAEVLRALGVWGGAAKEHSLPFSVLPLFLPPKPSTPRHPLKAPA

[32] = target: Prokineticin receptor 2 (Homo sapiens) (UniProt Q8NFJ6); assay: RLU of PK2 at 1.0 µM in the […] PRESTO-Tango GPCRome screen
Sequence of Prokineticin receptor 2 (Homo sapiens) (Q8NFJ6 whole entry): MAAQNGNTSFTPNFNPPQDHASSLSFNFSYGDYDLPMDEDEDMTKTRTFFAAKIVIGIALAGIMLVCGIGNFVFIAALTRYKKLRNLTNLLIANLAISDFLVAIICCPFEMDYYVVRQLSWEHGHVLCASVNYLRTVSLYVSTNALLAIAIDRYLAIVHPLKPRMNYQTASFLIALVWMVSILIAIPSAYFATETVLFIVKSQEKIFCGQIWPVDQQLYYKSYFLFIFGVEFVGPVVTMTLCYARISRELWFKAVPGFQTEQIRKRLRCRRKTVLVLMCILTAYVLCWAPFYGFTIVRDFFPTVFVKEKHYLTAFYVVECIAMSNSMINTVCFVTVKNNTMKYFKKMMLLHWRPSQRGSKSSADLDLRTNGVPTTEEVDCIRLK

[33] = target: Relaxin receptor 2 (Homo sapiens) (UniProt Q8WXD0); assay: RLU of RXFP2 at 1.0 µM in the […] PRESTO-Tango GPCRome screen
Sequence of Relaxin receptor 2 (Homo sapiens) (Q8WXD0 whole entry): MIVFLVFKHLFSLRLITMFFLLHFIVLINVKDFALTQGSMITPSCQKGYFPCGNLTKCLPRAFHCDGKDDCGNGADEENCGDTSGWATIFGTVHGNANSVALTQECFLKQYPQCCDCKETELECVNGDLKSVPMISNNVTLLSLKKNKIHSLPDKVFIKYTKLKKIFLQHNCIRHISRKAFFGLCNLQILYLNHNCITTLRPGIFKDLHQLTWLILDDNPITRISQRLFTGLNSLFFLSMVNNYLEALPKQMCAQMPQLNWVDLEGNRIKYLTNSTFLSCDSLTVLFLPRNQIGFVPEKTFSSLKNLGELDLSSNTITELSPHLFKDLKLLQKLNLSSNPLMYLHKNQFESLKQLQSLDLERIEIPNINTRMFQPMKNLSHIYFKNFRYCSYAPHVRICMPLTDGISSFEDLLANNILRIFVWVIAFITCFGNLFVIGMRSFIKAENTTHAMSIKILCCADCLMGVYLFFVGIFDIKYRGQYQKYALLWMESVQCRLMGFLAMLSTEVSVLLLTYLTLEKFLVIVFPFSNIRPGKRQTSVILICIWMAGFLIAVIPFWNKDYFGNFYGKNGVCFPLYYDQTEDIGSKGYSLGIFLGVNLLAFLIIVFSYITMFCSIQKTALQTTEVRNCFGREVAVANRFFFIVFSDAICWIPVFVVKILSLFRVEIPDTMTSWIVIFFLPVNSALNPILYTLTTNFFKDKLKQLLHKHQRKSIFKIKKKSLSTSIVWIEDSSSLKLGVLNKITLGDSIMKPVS

[34] = target: Adhesion G protein-coupled receptor A2 (Homo sapiens) (UniProt Q96PE1); assay: RLU of GPR124 at 1.0 µM in the […] PRESTO-Tango GPCRome screen
[35] = target: Adhesion G-protein coupled receptor F3 (Homo sapiens) (UniProt Q8IZF5); assay: RLU of GPR113 at 1.0 µM in the […] PRESTO-Tango GPCRome screen

Sequence of Calcitonin receptor (Homo sapiens) (P30988 whole entry): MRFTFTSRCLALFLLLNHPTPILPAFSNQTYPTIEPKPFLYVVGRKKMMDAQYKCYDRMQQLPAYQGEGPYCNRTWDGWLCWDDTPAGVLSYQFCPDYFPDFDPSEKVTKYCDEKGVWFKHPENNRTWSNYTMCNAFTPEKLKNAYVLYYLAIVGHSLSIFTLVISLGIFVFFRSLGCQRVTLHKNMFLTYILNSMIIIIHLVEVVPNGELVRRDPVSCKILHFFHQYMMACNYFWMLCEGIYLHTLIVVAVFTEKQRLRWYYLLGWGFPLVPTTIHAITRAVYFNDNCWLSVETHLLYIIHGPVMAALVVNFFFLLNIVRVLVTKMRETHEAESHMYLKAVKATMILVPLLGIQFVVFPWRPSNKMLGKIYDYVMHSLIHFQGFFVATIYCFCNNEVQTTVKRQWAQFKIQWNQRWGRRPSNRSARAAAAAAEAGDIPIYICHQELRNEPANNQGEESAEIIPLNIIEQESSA

## CCCCC(=O)N1CC2(C1)CN(c1ccccc1-c1nnn[nH]1)C2
[1]
  RLU: -5810
[2]
  RLU: 1710
[3]
  RLU: -1300
[4]
  RLU: 2720
[5]
  RLU: 3270
[6]
  RLU: -311
[7]
  RLU: 2100
[8]
  RLU: 86500
[9]
  RLU: -2780
[10]
  RLU: -1360
[11]
  RLU: -471
[12]
  RLU: 162
[13]
  RLU: -872
[14]
  RLU: 1690
[15]
  RLU: -12800
[16]
  RLU: 83.2
[17]
  RLU: -1350
[18]
  RLU: -1890
[19]
  RLU: -406
[20]
  RLU: -12300
[21]
  RLU: 77.2
[22]
  RLU: 6490
[23]
  RLU: 84.8
[24]
  RLU: -2870
[25]
  RLU: 5570
[26]
  RLU: 280
[27]
  RLU: 13500
[28]
  RLU: 4140
[29]
  RLU: -473
[30]
  RLU: -2690
[31]
  RLU: 917
[32]
  RLU: -566
[33]
  RLU: -900
[34]
  RLU: -2920
[35]
  RLU: 387
